Assay results from ChEMBL document CHEMBL4610123, “Structure-Based Drug Discovery of N-((R)-3-(7-Methyl-1H-indazol-5-yl)-1-oxo-1-(((S)-1-oxo-3-(piperidin-4-yl)-1-(4-(pyridin-4-yl)piperazin-1-yl)propan-2-yl)amino)propan-2-yl)-2'-oxo-1',2'-dihydrospiro[piperidine-4,4'-pyrido[2,3-d][1,3]oxazine]-1-carboxamide (HTL22562): A Calcitonin Gene-Related …” (J Med Chem, 2020).
Values after ≈ are worked out from the molar mass of the structure shown.

How the values were obtained:
[1] = target: T1, Mas-related G-protein coupled receptor member X2 (Homo sapiens) (UniProt Q96LB1); test: Agonist activity at MRGPX2 (unknown origin) at 10 uM relative to control
T1 sequence (whole entry): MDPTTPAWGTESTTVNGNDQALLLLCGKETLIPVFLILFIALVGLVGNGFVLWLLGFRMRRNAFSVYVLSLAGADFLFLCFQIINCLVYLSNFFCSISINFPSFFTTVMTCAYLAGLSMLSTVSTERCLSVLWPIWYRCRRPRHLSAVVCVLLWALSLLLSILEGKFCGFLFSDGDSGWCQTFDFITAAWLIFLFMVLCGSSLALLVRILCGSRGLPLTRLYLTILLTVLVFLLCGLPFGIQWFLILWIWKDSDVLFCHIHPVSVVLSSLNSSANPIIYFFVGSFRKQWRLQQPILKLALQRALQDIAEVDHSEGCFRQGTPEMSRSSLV

[2] = target: T2, AHR (aryl hydrocarbon receptor) (Homo sapiens, UniProt P35869); test: Transactivation of AHR (unknown origin) assessed as induction of CYP450 at 3 uM relative to control; format: ADME; conditions: read-out: FC
T2 sequence (P35869 whole entry): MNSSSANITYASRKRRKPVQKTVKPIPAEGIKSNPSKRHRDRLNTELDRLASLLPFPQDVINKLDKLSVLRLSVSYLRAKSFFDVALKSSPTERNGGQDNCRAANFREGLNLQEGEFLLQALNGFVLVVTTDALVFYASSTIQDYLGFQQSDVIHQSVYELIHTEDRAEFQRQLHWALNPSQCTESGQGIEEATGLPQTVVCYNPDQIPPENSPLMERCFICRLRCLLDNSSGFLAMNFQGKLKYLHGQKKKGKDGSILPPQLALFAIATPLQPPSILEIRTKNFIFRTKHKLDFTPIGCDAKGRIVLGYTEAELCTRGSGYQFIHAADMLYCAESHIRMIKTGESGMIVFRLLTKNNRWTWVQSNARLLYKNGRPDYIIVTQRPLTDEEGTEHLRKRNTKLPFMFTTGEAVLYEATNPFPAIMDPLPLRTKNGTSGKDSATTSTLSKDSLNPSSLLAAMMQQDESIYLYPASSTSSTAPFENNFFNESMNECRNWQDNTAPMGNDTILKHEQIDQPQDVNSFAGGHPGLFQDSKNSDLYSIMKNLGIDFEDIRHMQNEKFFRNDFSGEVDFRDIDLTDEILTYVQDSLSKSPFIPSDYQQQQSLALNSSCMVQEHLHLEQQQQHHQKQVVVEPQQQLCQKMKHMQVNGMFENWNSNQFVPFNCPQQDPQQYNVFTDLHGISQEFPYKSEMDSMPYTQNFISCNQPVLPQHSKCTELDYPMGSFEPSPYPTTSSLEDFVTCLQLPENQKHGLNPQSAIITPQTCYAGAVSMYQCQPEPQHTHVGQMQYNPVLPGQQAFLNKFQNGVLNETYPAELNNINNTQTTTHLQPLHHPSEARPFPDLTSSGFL

[3] = Solubility of the compound at pH 5.7 using amorphous form of sample; format: physicochemical; conditions: buffer
[4] = Protein binding in cynomolgus monkey plasma by high-throughput dialysis method; format: ADME, cell-free, Macaca fascicularis; conditions: read-out: PPB (converted)
[5] = Volume of distribution at steady state in cynomolgus monkey at 0.5 mg/kg, iv; format: ADME, organism-based, Macaca fascicularis; conditions: in vivo, read-out: Vdss
[6] = Volume of distribution at steady state in rat at 2 mg/kg, iv; format: ADME, organism-based; conditions: in vivo, read-out: Vdss
[7] = Thermodynamic solubility of the compound at pH 7.4; format: physicochemical; conditions: buffer, read-out: Therm_solubility
[8] = Clearance in cynomolgus monkey at 0.5 mg/kg, iv; format: ADME, organism-based, Macaca fascicularis; conditions: in vivo
[9] = Half life in dog hepatocytes; format: ADME, cell-based, Canis lupus familiaris, Hepatocyte
[10] = Stability of the compound in pH 8 solution at 50 degC assessed as loss of purity after 1 week; format: physicochemical; conditions: read-out: Drug degradation
PXR (NR1I2) = target: T3, PXR (NR1I2) (Homo sapiens, UniProt O75469); test: Transactivation of PXR (unknown origin) assessed as induction of CYP450 at 3 uM relative to control; format: ADME; conditions: read-out: FC
T3 sequence (O75469 whole entry): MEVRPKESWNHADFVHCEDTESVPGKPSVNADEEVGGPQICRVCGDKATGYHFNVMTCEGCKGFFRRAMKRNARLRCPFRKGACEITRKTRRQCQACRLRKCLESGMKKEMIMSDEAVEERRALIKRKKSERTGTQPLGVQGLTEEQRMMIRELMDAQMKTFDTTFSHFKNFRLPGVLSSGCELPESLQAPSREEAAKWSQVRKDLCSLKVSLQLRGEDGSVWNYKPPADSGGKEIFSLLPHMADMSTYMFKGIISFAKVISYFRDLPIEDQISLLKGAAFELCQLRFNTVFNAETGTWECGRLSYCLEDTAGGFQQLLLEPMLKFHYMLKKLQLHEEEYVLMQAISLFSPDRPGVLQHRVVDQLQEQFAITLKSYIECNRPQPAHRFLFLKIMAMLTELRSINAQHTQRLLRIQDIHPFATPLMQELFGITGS

[11] = Half life in human hepatocytes; format: ADME, cell-based, Hepatocyte
[12] = Oral bioavailability in cynomolgus monkey at 0.5 mg/kg; format: ADME, organism-based, Macaca fascicularis; conditions: in vivo
[13] = AUC (infinity) in cynomolgus monkey at 0.5 mg/kg, sc; format: ADME, organism-based, Macaca fascicularis; design: dose 0.5 mg/kg, route subcutaneous, time infinity; conditions: in vivo
[14] = Half life in dog at 0.5 mg/kg, iv; format: ADME, organism-based, Canis lupus familiaris; conditions: in vivo
Cytochrome P450 2C8 = target: T4, Cytochrome P450 2C8 (Homo sapiens, UniProt P10632); test: Inhibition of CYP2C8 (unknown origin); format: ADME
T4 sequence (P10632 whole entry): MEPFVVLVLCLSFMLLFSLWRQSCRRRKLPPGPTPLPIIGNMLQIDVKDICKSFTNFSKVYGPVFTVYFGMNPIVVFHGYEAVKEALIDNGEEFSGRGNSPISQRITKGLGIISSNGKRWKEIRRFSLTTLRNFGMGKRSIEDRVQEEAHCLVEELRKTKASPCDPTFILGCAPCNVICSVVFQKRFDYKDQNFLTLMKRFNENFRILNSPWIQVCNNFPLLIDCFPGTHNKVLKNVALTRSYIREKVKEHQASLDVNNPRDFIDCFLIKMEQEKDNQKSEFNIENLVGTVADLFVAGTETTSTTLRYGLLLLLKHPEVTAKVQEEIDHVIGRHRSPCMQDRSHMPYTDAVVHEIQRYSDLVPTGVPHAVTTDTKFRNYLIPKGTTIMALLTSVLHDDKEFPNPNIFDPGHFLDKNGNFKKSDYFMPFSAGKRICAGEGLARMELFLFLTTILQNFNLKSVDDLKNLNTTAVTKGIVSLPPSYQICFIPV

[15] = target: Amylin receptor AMY1, CALCR/RAMP1 (Homo sapiens) (UniProt P30988+O60894); test: Antagonist activity at human amylin-1 receptor; format: protein-complex assay
Homo sapiens = species: Homo sapiens; test: Selectivity ratio of antagonist activity at adrenomedullin-1 receptor (unknown origin) to antagonist activity at human CGRP receptor in human SK-N-MC cells; format: cell-based
Macaca fascicularis = species: Macaca fascicularis; test: Antagonist activity at cynomolgus monkey CGRP receptor
[16] = Apparent permeability across apical to basolateral side in MDCK cells; format: ADME, cell-based, Canis lupus familiaris; conditions: dog
[17] = Half life in cynomolgus monkey at 0.5 mg/kg, iv; format: ADME, organism-based, Macaca fascicularis; conditions: in vivo

With `Cc1cc(C[C@@H](NC(=O)N2CCC3(CC2)OC(=O)Nc2ncccc23)C(=O)N[C@@H](CC2CCNCC2)C(=O)N2CCN(c3ccncc3)CC2)cc2cn[nH]c12` [HTL-0022562] the Activity [1] was 80%, the fold induction at 3 µM [2] was 1.4 and the solubility [3] was 115 mg/mL (≈ 151 mM). It also gave a fraction unbound [4] of 0.69, a Vd [5] of 0.4 L/kg and a Vd [6] of 1 L/kg. The solubility thermodynamic [7] was 2460 µM (≈ 1880 µg/mL), the clearance [8] was 2 mL/min/kg and the half-life [9] was > 5 h. For the same compound, the degraded at 168 h [10] was 4.5%, the fold induction at 3 µM (PXR (NR1I2)) was 2.3 and the half-life [11] was > 5 h. It also gave a bioavailability [12] of 117%, an AUC(0-inf) [13] of 4210 ng·h/mL and a half-life [14] of 1.2 h. The IC50 (Cytochrome P450 2C8) was > 50.1 µM, the pKb [15] was < 6.3 and the Selectivity ratio (Homo sapiens) was > 8000. The pKb (Macaca fascicularis) was 10.5, the Papp A→B [16] was 0.8 ×10⁻⁶ cm/s and the half-life [17] was 5.3 h.
